Results published in article PMC9898036, “VIP152 is a selective CDK9 inhibitor with pre-clinical in vitro and in vivo efficacy in chronic lymphocytic leukemia” (Leukemia, 2022).

Tests used:
[1] = biological target: T1, CDK9 in complex with Cyclin K (Homo sapiens, UniProt P50750); assay: HotSpot radiometric kinase assay; assay type: biochemical; settings: 10-dose series from 0.5 nM to 10 µM; vs dinaciclib, KB-0742, atuveciclib
T1 construct: host or cells: HEK293
Procedure: We next compared VIP152 to other CDK inhibitors currently in development. […] The compounds were tested in a 10-dose series from 0.5 nM to 10 µM against CDK9 in complex with Cyclin T1/T2/K, CDK7/Cyclin H, and GSK3α/β. […]
HotSpot Kinase Assay Protocol
Compounds tested via HotSpot Kinase Assay were sent to ReactionBio for the experiment. The […]
Kinase substrate was added to reaction buffer (20 mM Hepes (pH 7.5), 10 mM MgCl2, 1 mM EGTA, 0.01% Brij35, 0.02 mg/ml BSA, 0.1 mM Na3VO4, 2 mM DTT, 1% DMSO). Cofactors and kinases were gently added to the reaction buffer. Compounds to be tested were dissolved in 100% DMSO and were delivered into the kinase reaction mixture by Acoustic technology (Echo550; nanoliter range) and incubated for 20 min at room temperature. 32P-ATP was delivered into the reaction mixture and the reaction was allowed to proceed for 2 hours. Kinase activity was detected by P81 filter-binding method.

BRK = BRK (Homo sapiens, UniProt Q13882); assay: KINOMEscan: BRK; assay type: binding; settings: 1000 nM, read-out: Percent Control
ERK4 = ERK4 (Homo sapiens, UniProt P31152); assay: KINOMEscan: ERK4; assay type: binding; settings: 1000 nM, read-out: Percent Control
ERK4, sequence (P31152 whole entry): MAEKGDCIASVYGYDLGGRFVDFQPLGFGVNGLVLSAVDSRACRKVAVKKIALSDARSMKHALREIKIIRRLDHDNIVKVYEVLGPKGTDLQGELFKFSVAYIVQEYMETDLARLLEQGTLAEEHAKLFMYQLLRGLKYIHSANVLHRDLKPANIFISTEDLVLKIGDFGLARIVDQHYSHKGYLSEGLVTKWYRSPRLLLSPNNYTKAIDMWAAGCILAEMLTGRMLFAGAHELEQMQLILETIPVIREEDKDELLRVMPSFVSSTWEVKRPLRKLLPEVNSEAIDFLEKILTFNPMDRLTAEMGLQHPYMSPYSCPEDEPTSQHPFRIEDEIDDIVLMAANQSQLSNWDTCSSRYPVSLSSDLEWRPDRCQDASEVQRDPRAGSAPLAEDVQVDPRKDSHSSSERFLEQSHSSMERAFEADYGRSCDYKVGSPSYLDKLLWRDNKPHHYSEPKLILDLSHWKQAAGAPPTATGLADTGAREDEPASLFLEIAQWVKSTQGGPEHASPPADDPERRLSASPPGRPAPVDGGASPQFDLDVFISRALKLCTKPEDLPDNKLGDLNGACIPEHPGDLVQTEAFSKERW

[2] = biological target: RSK2(Kin.Dom.2-C-terminal) (Homo sapiens, UniProt P51812); assay: KINOMEscan: RSK2(Kin.Dom.2-C-terminal); assay type: binding; settings: 100 nM, read-out: Percent Control
[3] = biological target: Transporter, Serotonin (5-Hydroxytryptamine) (SERT) (Homo sapiens, UniProt P31645); assay: Eurofins Diversity Panel; assay type: binding; settings: hum, Conc. 10 μM
Transporter, Serotonin (5-Hydroxytryptamine) (SERT), sequence (P31645 whole entry): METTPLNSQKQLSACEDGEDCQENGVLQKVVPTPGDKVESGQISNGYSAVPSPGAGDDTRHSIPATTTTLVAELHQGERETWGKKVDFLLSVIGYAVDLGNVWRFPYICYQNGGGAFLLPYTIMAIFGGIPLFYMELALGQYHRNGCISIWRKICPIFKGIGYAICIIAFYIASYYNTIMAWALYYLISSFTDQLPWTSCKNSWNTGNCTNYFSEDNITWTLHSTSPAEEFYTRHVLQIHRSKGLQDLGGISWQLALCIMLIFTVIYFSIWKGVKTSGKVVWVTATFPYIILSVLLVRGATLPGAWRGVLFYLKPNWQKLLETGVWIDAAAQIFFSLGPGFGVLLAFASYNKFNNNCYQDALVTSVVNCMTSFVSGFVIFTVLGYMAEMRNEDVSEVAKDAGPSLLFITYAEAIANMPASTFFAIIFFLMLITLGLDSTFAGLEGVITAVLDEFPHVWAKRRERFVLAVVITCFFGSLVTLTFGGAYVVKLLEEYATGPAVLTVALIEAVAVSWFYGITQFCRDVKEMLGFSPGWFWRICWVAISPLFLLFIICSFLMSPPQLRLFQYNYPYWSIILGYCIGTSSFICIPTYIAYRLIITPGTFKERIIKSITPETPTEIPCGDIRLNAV

[4] = biological target: RPS6KA5(Kin.Dom.1-N-terminal) (Homo sapiens, UniProt O75582); assay: KINOMEscan: RPS6KA5(Kin.Dom.1-N-terminal); assay type: binding; settings: 100 nM, read-out: Percent Control
GCN2(Kin.Dom.2,S808G) = GCN2(Kin.Dom.2,S808G) (Homo sapiens, UniProt Q9P2K8, S808G); assay: KINOMEscan: GCN2(Kin.Dom.2,S808G); assay type: binding; settings: 1000 nM, read-out: Percent Control
AXL = AXL (Homo sapiens, UniProt P30530); assay: KINOMEscan: AXL; assay type: binding; settings: 1000 nM, read-out: Percent Control
YES = YES (Homo sapiens, UniProt P07947); assay: KINOMEscan: YES; assay type: binding; settings: 100 nM, read-out: Percent Control
YES, sequence (P07947 whole entry): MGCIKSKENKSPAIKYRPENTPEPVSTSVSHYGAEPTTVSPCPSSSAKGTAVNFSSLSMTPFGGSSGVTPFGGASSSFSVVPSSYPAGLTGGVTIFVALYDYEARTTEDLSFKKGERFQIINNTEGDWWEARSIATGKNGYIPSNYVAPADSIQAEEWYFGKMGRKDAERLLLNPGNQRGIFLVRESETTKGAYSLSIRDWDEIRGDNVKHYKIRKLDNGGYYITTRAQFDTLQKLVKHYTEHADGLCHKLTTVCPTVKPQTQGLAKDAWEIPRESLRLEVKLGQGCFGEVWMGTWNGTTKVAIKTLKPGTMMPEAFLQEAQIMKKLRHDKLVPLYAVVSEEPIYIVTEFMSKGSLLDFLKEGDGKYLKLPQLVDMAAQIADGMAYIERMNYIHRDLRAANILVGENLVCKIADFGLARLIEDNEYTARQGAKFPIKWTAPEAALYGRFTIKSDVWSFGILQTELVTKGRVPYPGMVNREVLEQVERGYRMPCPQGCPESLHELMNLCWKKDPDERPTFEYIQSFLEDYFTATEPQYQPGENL

MKNK1 = MKNK1 (Homo sapiens, UniProt Q9BUB5); assay: KINOMEscan: MKNK1; assay type: binding; settings: 1000 nM, read-out: Percent Control
MKNK1, sequence (Q9BUB5 whole entry): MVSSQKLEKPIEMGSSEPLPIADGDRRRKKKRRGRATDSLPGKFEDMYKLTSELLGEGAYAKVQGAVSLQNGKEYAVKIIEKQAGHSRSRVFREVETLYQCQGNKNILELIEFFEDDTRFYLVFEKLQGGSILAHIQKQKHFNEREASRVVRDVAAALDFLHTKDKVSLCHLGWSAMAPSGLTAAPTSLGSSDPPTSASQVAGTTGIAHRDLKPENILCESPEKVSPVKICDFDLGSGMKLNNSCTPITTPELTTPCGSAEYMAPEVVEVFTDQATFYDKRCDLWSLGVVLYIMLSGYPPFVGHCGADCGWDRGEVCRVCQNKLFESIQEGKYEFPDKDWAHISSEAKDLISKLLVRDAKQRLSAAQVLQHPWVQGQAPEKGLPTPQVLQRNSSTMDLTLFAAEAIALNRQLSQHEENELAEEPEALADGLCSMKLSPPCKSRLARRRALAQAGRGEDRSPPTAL

Adrenergic α2A = biological target: T2, Adrenergic α2A (Homo sapiens, UniProt P08913); assay: Eurofins Diversity Panel; assay type: binding; settings: hum
T2 construct: purchased Eurofins
T2 sequence (P08913 1-465): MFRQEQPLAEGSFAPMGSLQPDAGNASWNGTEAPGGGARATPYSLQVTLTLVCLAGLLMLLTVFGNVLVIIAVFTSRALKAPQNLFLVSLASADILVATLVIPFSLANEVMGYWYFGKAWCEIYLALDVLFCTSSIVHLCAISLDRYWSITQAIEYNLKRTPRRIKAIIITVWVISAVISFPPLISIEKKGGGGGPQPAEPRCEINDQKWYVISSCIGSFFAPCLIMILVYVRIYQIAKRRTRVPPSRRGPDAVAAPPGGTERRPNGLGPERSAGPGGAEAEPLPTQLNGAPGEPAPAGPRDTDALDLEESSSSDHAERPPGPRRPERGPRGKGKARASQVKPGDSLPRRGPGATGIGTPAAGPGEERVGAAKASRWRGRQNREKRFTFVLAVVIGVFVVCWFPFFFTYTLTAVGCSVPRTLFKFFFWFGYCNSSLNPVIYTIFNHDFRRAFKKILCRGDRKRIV

MLCK = MLCK (Homo sapiens, UniProt Q32MK0); assay: KINOMEscan: MLCK; assay type: binding; settings: 1000 nM, read-out: Percent Control
SgK110 = SgK110 (Homo sapiens, UniProt P0C264); assay: KINOMEscan: SgK110; assay type: binding; settings: 100 nM, read-out: Percent Control
FGFR3(G697C) = FGFR3(G697C) (Homo sapiens, UniProt P22607, G697C); assay: KINOMEscan: FGFR3(G697C); assay type: binding; settings: 1000 nM, read-out: Percent Control
FGFR3(G697C), sequence (P22607 23-806 G697C): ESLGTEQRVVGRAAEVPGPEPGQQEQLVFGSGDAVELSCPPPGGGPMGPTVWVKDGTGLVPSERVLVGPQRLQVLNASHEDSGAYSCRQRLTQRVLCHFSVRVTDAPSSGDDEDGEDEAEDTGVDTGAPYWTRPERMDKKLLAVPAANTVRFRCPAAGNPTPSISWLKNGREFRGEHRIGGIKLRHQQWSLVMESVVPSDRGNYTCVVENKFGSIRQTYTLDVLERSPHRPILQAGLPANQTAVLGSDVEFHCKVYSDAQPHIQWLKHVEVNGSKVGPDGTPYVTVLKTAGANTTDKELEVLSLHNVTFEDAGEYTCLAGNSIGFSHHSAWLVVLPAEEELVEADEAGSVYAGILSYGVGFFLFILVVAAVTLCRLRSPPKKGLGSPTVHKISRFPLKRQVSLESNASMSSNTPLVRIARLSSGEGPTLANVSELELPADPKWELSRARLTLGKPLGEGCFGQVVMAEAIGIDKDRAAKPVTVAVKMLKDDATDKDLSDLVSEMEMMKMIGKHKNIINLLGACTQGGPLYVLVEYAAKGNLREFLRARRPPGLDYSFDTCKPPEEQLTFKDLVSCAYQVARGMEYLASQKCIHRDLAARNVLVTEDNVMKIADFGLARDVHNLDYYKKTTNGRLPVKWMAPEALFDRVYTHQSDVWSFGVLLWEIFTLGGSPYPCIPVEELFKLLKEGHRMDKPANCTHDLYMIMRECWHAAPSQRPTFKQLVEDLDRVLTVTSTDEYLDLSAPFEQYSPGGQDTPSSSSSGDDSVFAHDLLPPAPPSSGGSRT

Dopamine D1 = Dopamine D1 (Homo sapiens, UniProt P21728); assay: Eurofins Diversity Panel; assay type: binding; settings: hum, Conc. 10 μM
FGFR4 = FGFR4 (Homo sapiens, UniProt P22455); assay: KINOMEscan: FGFR4; assay type: binding; settings: 1000 nM, read-out: Percent Control
ROCK2 = ROCK2 (Homo sapiens, UniProt O75116); assay: KINOMEscan: ROCK2; assay type: binding; settings: 100 nM, read-out: Percent Control
TIE1 = TIE1 (Homo sapiens, UniProt P35590); assay: KINOMEscan: TIE1; assay type: binding; settings: 100 nM, read-out: Percent Control
[5] = biological target: TYK2(JH1domain-catalytic) (Homo sapiens, UniProt P29597); assay: KINOMEscan: TYK2(JH1domain-catalytic); assay type: binding; settings: 100 nM, read-out: Percent Control
TYK2(JH1domain-catalytic), sequence (P29597 875-1187 limits assumed): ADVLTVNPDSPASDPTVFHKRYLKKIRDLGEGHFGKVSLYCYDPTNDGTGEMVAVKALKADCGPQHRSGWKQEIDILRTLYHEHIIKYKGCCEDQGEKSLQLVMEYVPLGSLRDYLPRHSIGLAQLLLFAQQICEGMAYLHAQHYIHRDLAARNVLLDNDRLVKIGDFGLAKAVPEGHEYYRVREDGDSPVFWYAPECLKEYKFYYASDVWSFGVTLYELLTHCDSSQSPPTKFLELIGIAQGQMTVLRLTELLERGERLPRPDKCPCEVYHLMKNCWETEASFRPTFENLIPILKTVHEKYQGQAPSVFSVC

SRC = SRC (Homo sapiens, UniProt P12931); assay: KINOMEscan: SRC; assay type: binding; settings: 100 nM, read-out: Percent Control
[6] = biological target: JAK3(JH1domain-catalytic) (Homo sapiens, UniProt P52333); assay: KINOMEscan: JAK3(JH1domain-catalytic); assay type: binding; settings: 1000 nM, read-out: Percent Control
JAK3(JH1domain-catalytic), sequence (P52333 822-1124 limits assumed): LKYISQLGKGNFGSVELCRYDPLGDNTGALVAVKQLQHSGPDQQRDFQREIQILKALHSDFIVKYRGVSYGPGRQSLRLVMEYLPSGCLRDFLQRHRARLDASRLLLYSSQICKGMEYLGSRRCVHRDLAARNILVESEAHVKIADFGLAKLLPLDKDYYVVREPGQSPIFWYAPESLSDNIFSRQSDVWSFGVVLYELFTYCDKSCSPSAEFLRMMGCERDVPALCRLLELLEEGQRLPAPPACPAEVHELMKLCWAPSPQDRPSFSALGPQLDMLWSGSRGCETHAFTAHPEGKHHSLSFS

TAK1 = TAK1 (Homo sapiens, UniProt O43318); assay: KINOMEscan: TAK1; assay type: binding; settings: 100 nM, read-out: Percent Control
EGFR(E746-A750del) = EGFR(E746-A750del) (Homo sapiens, UniProt P00533, DEL746-750); assay: KINOMEscan: EGFR(E746-A750del); assay type: binding; settings: 1000 nM, read-out: Percent Control
EGFR(E746-A750del), sequence (P00533 with tags, fused parts or gaps DEL746-750 limits assumed): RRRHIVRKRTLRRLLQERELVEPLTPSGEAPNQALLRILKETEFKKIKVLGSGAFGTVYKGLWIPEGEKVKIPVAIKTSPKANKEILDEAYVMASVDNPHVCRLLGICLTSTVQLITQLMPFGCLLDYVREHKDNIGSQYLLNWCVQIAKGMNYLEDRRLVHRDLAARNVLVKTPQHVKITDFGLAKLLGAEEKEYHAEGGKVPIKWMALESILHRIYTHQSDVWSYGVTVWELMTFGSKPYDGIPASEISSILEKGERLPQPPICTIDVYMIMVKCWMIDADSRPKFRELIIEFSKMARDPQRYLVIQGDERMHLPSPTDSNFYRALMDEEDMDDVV

MEK2 = MEK2 (Homo sapiens, UniProt P36507); assay: KINOMEscan: MEK2; assay type: binding; settings: 1000 nM, read-out: Percent Control
RIOK1 = RIOK1 (Homo sapiens, UniProt Q9BRS2); assay: KINOMEscan: RIOK1; assay type: binding; settings: 100 nM, read-out: Percent Control
RIOK1, sequence (Q9BRS2 whole entry): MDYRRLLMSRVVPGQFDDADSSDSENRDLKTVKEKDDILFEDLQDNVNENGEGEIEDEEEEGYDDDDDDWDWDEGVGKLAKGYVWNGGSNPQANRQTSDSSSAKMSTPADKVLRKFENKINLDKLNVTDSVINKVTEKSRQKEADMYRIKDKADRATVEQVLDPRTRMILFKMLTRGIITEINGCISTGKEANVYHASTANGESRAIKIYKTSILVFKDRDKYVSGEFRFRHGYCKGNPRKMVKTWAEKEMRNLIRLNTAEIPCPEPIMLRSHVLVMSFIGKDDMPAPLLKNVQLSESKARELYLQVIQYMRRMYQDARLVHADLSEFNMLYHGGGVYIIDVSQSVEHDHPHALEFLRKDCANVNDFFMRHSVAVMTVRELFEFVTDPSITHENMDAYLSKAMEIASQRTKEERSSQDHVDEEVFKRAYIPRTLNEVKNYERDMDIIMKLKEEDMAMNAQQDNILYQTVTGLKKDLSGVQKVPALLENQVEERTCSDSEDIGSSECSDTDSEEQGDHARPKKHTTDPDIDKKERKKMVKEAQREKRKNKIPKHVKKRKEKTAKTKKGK

FLT4 = FLT4 (Homo sapiens, UniProt P35916); assay: KINOMEscan: FLT4; assay type: binding; settings: 1000 nM, read-out: Percent Control
CSNK1G1 = CSNK1G1 (Homo sapiens, UniProt Q9HCP0); assay: KINOMEscan: CSNK1G1; assay type: binding; settings: 1000 nM, read-out: Percent Control
CSNK1G1, sequence (Q9HCP0 whole entry): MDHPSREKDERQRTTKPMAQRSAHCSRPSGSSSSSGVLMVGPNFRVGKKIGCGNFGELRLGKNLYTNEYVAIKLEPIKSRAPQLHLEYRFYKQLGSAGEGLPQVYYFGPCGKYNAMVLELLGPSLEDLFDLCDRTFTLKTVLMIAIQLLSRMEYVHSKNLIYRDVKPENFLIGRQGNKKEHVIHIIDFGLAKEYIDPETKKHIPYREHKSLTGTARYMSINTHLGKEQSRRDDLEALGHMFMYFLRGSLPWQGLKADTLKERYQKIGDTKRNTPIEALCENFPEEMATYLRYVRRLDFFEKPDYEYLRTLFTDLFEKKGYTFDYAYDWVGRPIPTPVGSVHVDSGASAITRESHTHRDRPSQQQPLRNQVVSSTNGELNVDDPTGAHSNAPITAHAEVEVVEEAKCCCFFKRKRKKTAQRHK

COc1cc(F)ccc1-c1cc(Nc2cc(CS(C)(=N)=O)ccn2)ncc1F (stereo not drawn) [VIP152]
potency versus the other inhibitors tested [1]: higher potency
remaining binding at 1 µM (BRK): 79%
remaining binding at 1 µM (ERK4): 99%
remaining binding at 0.1 µM [2]: 100%
inhibition at 10 µM [3]: -3%
remaining binding at 0.1 µM [4]: 100%
remaining binding at 1 µM (GCN2(Kin.Dom.2,S808G)): 100%
remaining binding at 1 µM (AXL): 50%
remaining binding at 0.1 µM (YES): 100%
remaining binding at 1 µM (MKNK1): 98%
IC50 (Adrenergic α2A): 64 nM
Ki (Adrenergic α2A): 32 nM
nH (Adrenergic α2A): 0.94
inhibition at 10 µM (Adrenergic α2A; Conc. 10 μM): 100%
remaining binding at 1 µM (MLCK): 100%
remaining binding at 0.1 µM (SgK110): 100%
remaining binding at 1 µM (FGFR3(G697C)): 63%
inhibition at 10 µM (Dopamine D1): 14%
remaining binding at 1 µM (FGFR4): 76%
remaining binding at 0.1 µM (ROCK2): 100%
remaining binding at 0.1 µM (TIE1): 100%
remaining binding at 0.1 µM [5]: 100%
remaining binding at 0.1 µM (SRC): 100%
remaining binding at 1 µM [6]: 74%
remaining binding at 0.1 µM (TAK1): 97%
remaining binding at 1 µM (EGFR(E746-A750del)): 76%
remaining binding at 1 µM (MEK2): 88%
remaining binding at 0.1 µM (RIOK1): 100%
remaining binding at 1 µM (FLT4): 74%
remaining binding at 1 µM (CSNK1G1): 91%
